Drawing on ChEMBL document CHEMBL1131926, “Synthesis and thromboxane A2 antagonistic activity of indane derivatives” (Bioorg Med Chem Lett, 1999), this text covers IC50, Inhibition and ED50 for 22 compounds.

A value given as a limit tells only on which side of the number the result lay.

The target of one experiment is T1, Thromboxane A2 receptor (Rattus norvegicus, UniProt P34978).
T1 sequence (P34978 whole entry): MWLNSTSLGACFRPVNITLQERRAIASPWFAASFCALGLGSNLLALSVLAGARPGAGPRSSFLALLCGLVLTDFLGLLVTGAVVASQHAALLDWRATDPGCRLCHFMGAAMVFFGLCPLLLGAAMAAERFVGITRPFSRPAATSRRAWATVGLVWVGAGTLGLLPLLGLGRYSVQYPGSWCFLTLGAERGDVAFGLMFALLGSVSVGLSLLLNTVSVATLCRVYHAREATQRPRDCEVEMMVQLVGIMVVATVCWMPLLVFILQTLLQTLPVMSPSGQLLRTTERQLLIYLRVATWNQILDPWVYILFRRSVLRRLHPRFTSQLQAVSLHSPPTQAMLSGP
The experiment can be described thus: In vitro thromboxane A2 antagonistic activity on U-46619 (0.1 uM) induced contraction of rat aorta. In kind it is functional, tissue-based.

For experiment [1], the species on record is Cavia porcellus. Briefly: In vitro inhibitory activity for the aggregation of guinea pig platelets induced by U-46,619 (4 uM) was determined. In kind it is functional.
Experiment [2] deals with Cavia porcellus. Briefly: Extra vivo inhibitory activity of compound (0.3 mg/kg p.o.) on the aggregation of guinea pig platelets induced by U-46619 (1 uM). In kind it is functional.
The next experiment is filed under the species Homo sapiens. The experiment can be described thus: In vitro inhibitory activity for the aggregation of human platelets induced by U-46,619 (1 uM) was determined. In kind it is functional.
For experiment [3], the species on record is Cavia porcellus. Briefly: Extra vivo inhibitory activity for the aggregation of guinea pig platelets induced by U-46,619 (4 uM) was determined. In kind it is functional, organism-based.
Experiment [4] has as its system Cavia porcellus. Briefly: Ex vivo inhibitory activity (0.3 mg/kg p.o.) on the aggregation of guinea pig platelets induced by arachidonic acid (100 uM). In kind it is functional.
The species entered for experiment [5] is Cavia porcellus. The experiment can be described thus: Extra vivo inhibitory activity of compound for the aggregation of guinea pig platelets induced by U-46,619 (4 uM) was determined. In kind it is functional, organism-based.

As to `O=C(O)c1ccc2c(c1)CC(CCCCNS(=O)(=O)c1ccc(Cl)cc1)C2` (configuration not stated), the IC50 against Thromboxane A2 receptor was > 0.479 µM.
On the same count and under the same terms, next, `O=C(O)Cc1ccc2c(c1)CC(CCCNS(=O)(=O)c1ccc(Cl)cc1)C2` (configuration not stated): 0.513 µM; `O=C(O)CCCCc1ccc2c(c1)CC(CNS(=O)(=O)c1ccc(Cl)cc1)C2` (configuration not stated): 0.0355 µM.
In the case of `O=C(O)Cc1ccc2c(c1)CC(CNS(=O)(=O)C1CCCCC1)C2` (configuration not stated), on Thromboxane A2 receptor, the IC50 is 1.2 µM.
On the same count and under the same terms, with `O=C(O)Cc1ccc2c(c1)CC(CNS(=O)(=O)c1ccc(Cl)cc1)O2` (configuration not stated) the figure was 0.141 µM; with `O=C(O)Cc1ccc2c(c1)CC(CCCCNS(=O)(=O)c1ccc(Cl)cc1)C2` (configuration not stated), 0.977 µM.
With `O=C([O-])Cc1ccc2c(c1)CC(CNS(=O)(=O)c1ccc3ccccc3c1)C2.[Na+]` (configuration not stated), the IC50 came out at 0.0224 µM against Thromboxane A2 receptor, 0.31 µM in the experiment filed under Cavia porcellus [1] and 0.29 µM in the experiment filed under Homo sapiens. The Inhibition in the experiment on Cavia porcellus [2] and with Cavia porcellus [4] was 100% each time. For the same compound, it took a dose of 0.13 mg/kg to reach the 50% effect level in the experiment listed under Cavia porcellus [3] (ED50).
As for `O=C([O-])CCc1ccc2c(c1)CC(CNS(=O)(=O)c1ccc(Cl)cc1)C2.[Na+]` (configuration not stated), at Thromboxane A2 receptor, half-maximal inhibition (IC50) was put at 0.0148 µM. For the same compound, the results for the Inhibition with Cavia porcellus [2] and with Cavia porcellus [4] were 98% and 57%, respectively.
For the compound `O=C(O)Cc1ccc2c(c1)CC(CNS(=O)(=O)Cc1ccccc1)C2` (configuration not stated), the IC50 at Thromboxane A2 receptor came out at 5.9 µM.
Compound `O=C([O-])Cc1ccc2c(c1)CC(CCNS(=O)(=O)c1ccc(Cl)cc1)C2.[Na+]` (configuration not stated) displayed an IC50 at Thromboxane A2 receptor of 0.0316 µM. For the same compound, the results for the Inhibition in the experiment with Cavia porcellus [2] and in the experiment with Cavia porcellus [4] were 96% and 83%, respectively.
`O=C(O)Cc1ccc2c(c1)CC(NS(=O)(=O)c1ccc(Cl)cc1)C2` (configuration not stated) came in with an IC50 on Thromboxane A2 receptor of 0.00219 µM.
On the same count and under the same terms, with `O=C(O)Cc1ccc2c(c1)CC(CNS(=O)(=O)c1cccnc1)C2` (configuration not stated) the figure was 1.9 µM.
Take `O=C([O-])c1ccc2c(c1)CC(CNS(=O)(=O)c1ccc(Cl)cc1)C2.[Na+]` (configuration not stated): on Thromboxane A2 receptor, the IC50 is 0.0263 µM. Also, the figures for the Inhibition with Cavia porcellus [2] and in the experiment on Cavia porcellus [4] were 58% and 29%, respectively.
In turn, `O=C([O-])CCCc1ccc2c(c1)CC(CNS(=O)(=O)c1ccc(Cl)cc1)C2.[Na+]` (configuration not stated) displayed an ED50 in the experiment filed under Cavia porcellus [5] of 0.083 mg/kg. In addition, the IC50 against Thromboxane A2 receptor is 0.0389 µM; in the experiment filed under Cavia porcellus [1], 0.23 µM; in the experiment filed under Homo sapiens, 2.69 µM. In addition, the Inhibition with Cavia porcellus [2] and with Cavia porcellus [4] was 100% throughout.
Compound `O=C(O)Cc1ccc2c(c1)CC(CNS(=O)(=O)c1cccs1)C2` (configuration not stated) displayed an IC50 against Thromboxane A2 receptor of 0.0851 µM.
For `O=C(O)c1ccc2c(c1)CC(CCNS(=O)(=O)c1ccc(Cl)cc1)C2` (configuration not stated), the IC50 at Thromboxane A2 receptor was determined as 0.0661 µM.
In the experiment filed under Cavia porcellus [5], `O=C([O-])Cc1ccc2c(c1)CC(CNS(=O)(=O)c1ccc(Cl)cc1)C2.[Na+]` (configuration not stated) displayed an ED50 of 0.063 mg/kg. For the same compound, the values for the IC50 on Thromboxane A2 receptor, in the experiment listed under Cavia porcellus [1] and in the experiment listed under Homo sapiens were 0.00302 µM, 0.27 µM and 0.28 µM, respectively. Moreover, the Inhibition with Cavia porcellus [2] and in the experiment with Cavia porcellus [4] was 100% each time.
For `O=C(O)c1ccc2c(c1)CC(CCCNS(=O)(=O)c1ccc(Cl)cc1)C2` (configuration not stated), on Thromboxane A2 receptor, it took 0.0851 µM to reach half-maximal inhibition (IC50).
Turning to `CCCCCS(=O)(=O)NCC1Cc2ccc(CC(=O)O)cc2C1` (configuration not stated), the concentration for half-maximal inhibition (IC50) against Thromboxane A2 receptor came to 1.4 µM.
The compound `O=C(O)Cc1ccc2c(c1)CC(CNS(=O)(=O)c1ccccc1)C2` (configuration not stated) showed an IC50 against Thromboxane A2 receptor of 0.0129 µM.
On to `O=C(O)Cc1ccc2c(c1)CC(CNS(=O)(=O)c1cccc3ccccc13)C2` (configuration not stated), for which half-maximal inhibition against Thromboxane A2 receptor (IC50) required 0.295 µM.
On to `O=C(O)Cc1ccc(CCNS(=O)(=O)c2ccc(Cl)cc2)cc1` [DALTROBAN], for which the IC50 in the experiment listed under Cavia porcellus [1] is 0.5 µM; in the experiment listed under Homo sapiens it was 0.37 µM. Besides, the Inhibition in the experiment with Cavia porcellus [2] is 55%; in the experiment on Cavia porcellus [4], 25%. For the same compound, the ED50 in the experiment filed under Cavia porcellus [3] stood at 0.53 mg/kg.
